Data on 9 compounds can be found in article PMC10486429, “Investigations Using Albumin Binders to Modify the Tissue Distribution Profile of Radiopharmaceuticals Exemplified with Folate Radioconjugates” (Cancers, 2023).

Data set [1] in a line: Radiolytic stability of 177Lu-DOTA-ALBs in PBS (HPLC). The data set is classed as physicochemical. To be noted: room temperature, 100 MBq/500 µL PBS. How it is done: The radiolabeling of DOTA-ALBs was carried out under standard labeling conditions at pH 4.5. The ligands (10−100 μM) were mixed with lutetium-177 (no-carrier added [^177Lu]LuCl3; in 0.04 M HCl; ITM GmbH Medical Isotopes, Munich, Germany) to reach molar activities of 25–50 MBq/nmol (Supplementary Materials Section S2). An analytical HPLC system equipped with a C18 column and a radioactivity detector was used for quality control of the radiolabeled DOTA-ALBs (Supplementary Materials Section S2). The ^177Lu-DOTA-ALBs were used for preclinical investigations without separation of the labeled from the unlabeled fraction. The radiolytic stability of the ^177Lu-DOTA-ALBs (50 MBq/nmol) diluted in phosphate-buffered saline (PBS; 100 MBq/500 μL) was assessed in vitro in the absence and presence of L-ascorbic acid (Supplementary Materials Section S3). The n-octanol/PBS distribution coefficients (logD values) were determined using a shake-flask method according to an established protocol (Supplementary Materials Section S4). The logD values were analyzed using a one-way ANOVA with Tukey’s multiple comparisons post-test using GraphPad Prism software (version 8). A p-value of <0.05 was considered a statistically significant difference. […]
S2. Radiolabeling of DOTA-ALBs with Lutetium-177
Purpose: The DOTA-ALBs were labeled with lutetium-177 for subsequent in vitro and […]
Methods: The DOTA-ALBs were dissolved in Milli-Q water at a concentration of 1 mM. Radiolabeling was performed by incubation of the respective DOTA-ALBs with lutetium-177 (no-carrier-added, in 0.04 M HCl; ITM Medical Isotopes GmbH, Munich, Germany) at 95 °C for 10 min in a 1:5 (v/v) mixture of sodium acetate (0.5 M) and HCl (0.05 M) at pH ~4.5 as previously reported. Quality control was performed by reversed-phase HPLC using an aliquot of the radiolabeled DOTA-ALBs (⁓1.5 MBq) diluted in Milli-Q water containing penta-sodium diethylenetriamine pentaacetic acid (Na5-DTPA; 50 µM). The HPLC system (Merck Hitachi LaChrom HPLC) was equipped with a D-7000 interface, a radioactivity detector (LB 508, Berthold Technologies GmbH), a L-6200A pump and a reversed-phase C18 column (XterraTM, 5 µm, 4.6×150 mm, Waters, USA). A linear gradient of 0.1% TFA in Milli-Q water (95–20%) and MeCN (5–80%) over 15 min was used as a mobile phase at a 1 mL/min flow rate. […]
to 50 MBq/nmol. The 177Lu-DOTA-ALBs were used without further purification for their in vitro and in vivo evaluation.
S3. Radiolytic Stability of 177Lu-DOTA-ALBs
Purpose: The stability of each 177Lu-labeled DOTA-ALB was assessed at a high activ-ity concentration to assess potential radiolytic degradation in the absence and presence of […]
Methods: After quality control of the labeled DOTA-ALBs using HPLC (t0), the radio-labeled DOTA-ALBs (50 MBq/nmol) were diluted in PBS pH 7.4 to obtain an activity con-centration of 100 MBq/500 µL. The samples were incubated at room temperature in the absence or presence of L-ascorbic acid (3 mg). Sodium acetate solution (0.5 M, pH 8.0, 150 µL) was added to the samples containing L-ascorbic acid in order to adjust the pH value to ⁓6.5. The integrity of the radiolabeled DOTA-ALBs was assessed after a 4 h- and 24 h-incubation period using HPLC as described above (Supplementary Material, Section S2). The HPLC chromatograms were analyzed by determination of the peak area of the radio-labeled DOTA-ALBs, the released lutetium-177 as well as potential degradation products of unknown structure. The quantity of the intact product was expressed as per-centage of the sum of integrated peak areas of the entire chromatogram and set in relation to the original value determined at t0 (radiochemical purity ≥95% set as 100%).
Results: The results are reported in the main article and presented together with the retention times of the product peak in Table S2.
Table S2. Radiolytic stability of 177Lu-DOTA-ALBs after incubation in the absence or presence of L-ascorbic acid at room temperature (average of n=2 individually performed experiments). […]

For the next data set, the target named is T1, folate receptor (FR) (Homo sapiens, UniProt P15328).
T1 construct: endogenous in cells; host or cells: IGROV-1 (human ovarian carcinoma cell line), intact cells on ice
T1 sequence (P15328 25-257): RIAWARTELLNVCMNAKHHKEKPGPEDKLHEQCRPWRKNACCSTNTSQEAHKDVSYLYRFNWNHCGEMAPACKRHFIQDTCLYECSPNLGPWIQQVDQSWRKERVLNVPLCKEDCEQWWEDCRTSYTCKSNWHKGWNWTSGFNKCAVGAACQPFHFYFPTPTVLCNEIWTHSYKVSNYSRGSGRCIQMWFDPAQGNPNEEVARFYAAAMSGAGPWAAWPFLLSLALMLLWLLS
Nature of the data set: FR-binding affinity (KD) of 177Lu-RedFols on IGROV-1 cells. To be noted: 1 h at 4 °C, read-out: KD Value (95% CI). How it is done: (100 µM) to block FRs on the cell surface. The IGROV-1 tumor cells were incubated for 1 h at 4 °C on a shaker, followed by removal of the supernatants and rinsing of the cells twice with PBS. After lysis of the cells with NaOH solution (1 M, 500 µL), the samples were counted for activity using a γ-counter (Wallac Wizard 1480, Perkin Elmer, Waltham, MA, USA). The cpm of the specific binding (determined by subtracting the cpm of the non-specific binding from the cpm of total binding), were plotted against the molar con-centration of the added folate radioconjugates. Non-linear regression analysis was per-formed using GraphPad Prism software (version 8) to obtain KD values from one curve of 3−5 independent experiments, each performed in triplicates.
Results: The results are reported in the main article. […]

`O=C(O)CN1CCN(CC(=O)O)CCN(CC(=O)NCCC(=O)N[C@@H](CCCCNC(=O)c2ccc(CNC(=O)CCCCc3ccc(I)cc3)cc2)C(=O)O)CCN(CC(=O)O)CC1.[177Lu]` [[^177Lu]Lu-DOTA-ALB-25]: the Intact radioligand in data set [1] (with L-ascorbic acid, 4 h) was 99%; in data set [1] (with L-ascorbic acid, 24 h), 97%; in data set [1] (without L-ascorbic acid, 4 h), 91%; in data set [1] (without L-ascorbic acid, 24 h) it was 41%.

For the compound `CN1c2c(nc(N)[nH]c2=O)NC[C@H]1CNc1ccc(C(=O)N[C@@H](CCC(=O)N[C@@H](CCCCNC(=O)CN2CCN(CC(=O)O)CCN(CC(=O)O)CCN(CC(=O)O)CC2)C(=O)N[C@@H](CCCCNC(=O)c2ccc(CNC(=O)CCCCc3ccc(I)cc3)cc2)C(=O)O)C(=O)O)cc1` [[^177Lu]Lu-6R-RedFol-25, metal not drawn], the Kd (usually the concentration at which binding is half-saturated) at folate receptor (FR) turned out to be 3.6 nM.

In the case of `CN1c2c(nc(N)[nH]c2=O)NC[C@H]1CNc1ccc(C(=O)N[C@@H](CCC(=O)N[C@@H](CCCCNC(=O)CN2CCN(CC(=O)O)CCN(CC(=O)O)CCN(CC(=O)O)CC2)C(=O)N[C@@H](CCCCNC(=O)c2ccc(CNC(=O)CCCc3ccc(I)cc3)cc2)C(=O)O)C(=O)O)cc1` [[^177Lu]Lu-6R-RedFol-3, metal not drawn], the Kd at folate receptor (FR) was 4.7 nM.

For the compound `CN1c2c(nc(N)[nH]c2=O)NCC1CNc1ccc(C(=O)NC(CCC(=O)NC(CCCCNC(=O)CN2CCN(CC(=O)[O-])CCN(CC(=O)[O-])CCN(CC(=O)[O-])CC2)C(=O)NC(CCCCNC(=O)c2ccc(CNC(=O)CCCCc3ccc(I)cc3)cc2)C(=O)O)C(=O)O)cc1.[177Lu+3]` (stereo not drawn) [[^177Lu]Lu-6S-RedFol-25], the Kd at folate receptor (FR) amounted to 2.2 nM.

Consider `CN1c2c(nc(N)[nH]c2=O)NCC1CNc1ccc(C(=O)NC(CCC(=O)NC(CCCCNC(=O)CN2CCN(CC(=O)[O-])CCN(CC(=O)[O-])CCN(CC(=O)[O-])CC2)C(=O)NC(CCCCNC(=O)c2ccc(CNC(=O)CCCc3ccc(I)cc3)cc2)C(=O)O)C(=O)O)cc1.[177Lu+3]` (stereo not drawn) [[^177Lu]Lu-6S-RedFol-3], for which, on folate receptor (FR), the Kd is 2.8 nM.

`O=C(O)CN1CCN(CC(=O)O)CCN(CC(=O)NCCC(=O)N[C@@H](CCCCNC(=O)c2ccc(CNC(=O)CCCc3ccc(I)cc3)cc2)C(=O)O)CCN(CC(=O)O)CC1.[177Lu]` [[^177Lu]Lu-DOTA-ALB-3]: the Intact radioligand is reported as 99% in data set [1] (with L-ascorbic acid, 4 h); 97% in data set [1] (with L-ascorbic acid, 24 h); 89% in data set [1] (without L-ascorbic acid, 4 h); 39% in data set [1] (without L-ascorbic acid, 24 h).

Turning to `O=C(O)CN1CCN(CC(=O)O)CCN(CC(=O)NCCC(=O)N[C@@H](CCCCNC(=O)CCCCc2ccc(I)cc2)C(=O)O)CCN(CC(=O)O)CC1.[177Lu]` [[^177Lu]Lu-DOTA-ALB-24], the Intact radioligand in data set [1] (with L-ascorbic acid, 4 h) is listed as 99%; in data set [1] (with L-ascorbic acid, 24 h), 95%; in data set [1] (without L-ascorbic acid, 4 h), 88%; in data set [1] (without L-ascorbic acid, 24 h) it was 39%.

With `CN1c2c(nc(N)[nH]c2=O)NC[C@H]1CNc1ccc(C(=O)N[C@@H](CCC(=O)N[C@@H](CCCCNC(=O)CN2CCN(CC(=O)O)CCN(CC(=O)O)CCN(CC(=O)O)CC2)C(=O)N[C@@H](CCCCNC(=O)CCCCc2ccc(I)cc2)C(=O)O)C(=O)O)cc1` [[^177Lu]Lu-6R-RedFol-24, metal not drawn], the Kd on folate receptor (FR) stood at 4.7 nM.

For the compound `O=C(O)CN1CCN(CC(=O)O)CCN(CC(=O)NCCC(=O)N[C@@H](CCCCNC(=O)CCCc2ccc(I)cc2)C(=O)O)CCN(CC(=O)O)CC1.[177Lu]` [[^177Lu]Lu-DOTA-ALB-1], the Intact radioligand stood at 99% in data set [1] (with L-ascorbic acid, 4 h); 96% in data set [1] (with L-ascorbic acid, 24 h); 92% in data set [1] (without L-ascorbic acid, 4 h); 51% in data set [1] (without L-ascorbic acid, 24 h).
